Assay results published in patent US20190330226A1, “POSITIVE ALLOSTERIC MODULATORS OF THE MUSCARINIC ACETYLCHOLINE RECEPTOR M1” (Vanderbilt University, priority 2018, published 2019).
pEC50: −log10 of the molar value.

Biological target: T1, human mAChR M1 (Homo sapiens, UniProt P11229)
T1 construct: host or cells: CHO-K1 (ATCC), stably transfected using Lipofectamine 2000
T1 sequence (P11229 1-460): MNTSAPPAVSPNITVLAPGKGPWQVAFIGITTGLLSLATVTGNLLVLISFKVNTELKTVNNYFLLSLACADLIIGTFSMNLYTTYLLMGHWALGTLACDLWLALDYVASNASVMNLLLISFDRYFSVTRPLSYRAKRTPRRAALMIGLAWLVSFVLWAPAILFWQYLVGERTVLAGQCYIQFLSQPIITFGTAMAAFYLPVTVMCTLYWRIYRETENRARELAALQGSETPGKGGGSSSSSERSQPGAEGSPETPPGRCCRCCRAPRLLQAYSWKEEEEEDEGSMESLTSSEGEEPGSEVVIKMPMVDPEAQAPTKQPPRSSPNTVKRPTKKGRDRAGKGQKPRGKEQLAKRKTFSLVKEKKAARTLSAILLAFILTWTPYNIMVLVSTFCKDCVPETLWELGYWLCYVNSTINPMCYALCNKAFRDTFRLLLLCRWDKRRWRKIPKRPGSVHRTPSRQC
Experiment: mAChR M1 cell-based functional assay (calcium mobilization, Fluo-4, FDSS)
Settings: CHO-K1 cells stably expressing hM1, calcium flux; for Emax: PAM mode with EC20 acetylcholine; for pEC50: concentration-dependent increase in the EC20 acetylcholine response
From the text: Chinese hamster ovary (CHO-K1) cells stably expressing rat (r)M1 were purchased from the American Type Culture Collection and cultured according to their indicated protocol. CHO cells stably expressing human (h)M2, hM3, and hM5 were described previously (Levey, et al., 1991); hM1 and hM4 cDNAs were purchased from Missouri S&T cDNA Resource; rM4 cDNA was provided by T. I. Bonner (National Institutes of Health, Bethesda, Md.). rM2 and rM3 were cloned from a rat brain cDNA library and sequence verified. hM1, rM2, rM3, hM4, and rM4 cDNAs were used to stably transfect CHO-K1 cells purchased from the American Type Culture Collection using Lipofectamine 2000. To make stable rM2, hM2, rM3, hM4, and rM4 cell lines for use in calcium mobilization assays, these cells also were stably transfected with a chimeric G-protein (Gqi5) (provided by B. R. Conklin, University of California, San Francisco) using Lipofectamine 2000. rM1, hM1, rM3, hM3, rM5, and hM5 cells were grown in Ham's F-12 medium containing 10% heat-inactivated fetal bovine serum (FBS), 20 mM HEPES, and 50 µg/mL G418 sulfate. rM2-Gqi5, hM2-Gqi5, and hM4-Gqi5 cells were grown in the same medium also containing 500 μg/mL Hygromycin B. Stable rM4-Gqi5 cells were grown in DMEM containing 10% heat-inactivated FBS, 20 mM HEPES, 400 μg/mL G418 sulfate, and 500 μg/mL Hygromycin B.
For high throughput measurement of agonist-evoked increases in intracellular calcium, CHO-K1 cells stably expressing muscarinic receptors were plated in growth medium lacking G418 and hygromycin at 15,000 cells/20 μL/well in Greiner 384-well black-walled, tissue culture (TC)-treated, clear-bottom plates (VWR). Cells were incubated overnight at 37° C. and 5% CO2. The next day, cells were washed using an ELX 405 (BioTek) with four washes ([…]) of assay buffer then aspirated to 20 μL. Next, 20 μL of 16 μM Fluo-4/acetoxymethyl ester (Invitrogen, Carlsbad, Calif.) prepared as a 2.3 mM stock in DMSO and mixed in a 1:1 ratio with 10% (w/v) Pluronic F-127 and diluted in assay buffer was added to the wells and the cell plates were incubated for 50 min at 37° C. and 5% CO2. Dye was removed by washing with the ELX 405 (four 80 μL washes of assay buffer) then aspirated to 20 μL. Compound master plates were formatted in an 11 point CRC format (1:3 dilutions) in 100% DMSO with a starting concentration of 10 mM using the BRAVO liquid handler (Agilent). Test compound CRCs were then transferred to daughter plates (240 nL) using the Echo acoustic plate reformatter (Labcyte, Sunnyvale, Calif.) and then diluted into assay buffer (40 μL) to a 2× stock using a Thermo Fisher Combi (Thermo Fisher Scientific, Waltham, Mass.).
Calcium flux was measured using the Functional Drug Screening System (FDSS) 6000 (Hamamatsu Corporation, Tokyo, Japan) as an increase in the fluorescent static ratio. Compounds were applied to cells (20 μL, 2×) using the automated system of the FDSS 6000 at 4 s into the 300 s protocol and the data were collected at 1 Hz. At 144 s into the 300s protocol, 10 μL of an EC20 concentration of the muscarinic receptor agonist acetylcholine was added (5×), followed by the addition of 12 μL an EC80 concentration of acetylcholine at the 230 s time point (5×). Agonist activity was analyzed as a concentration-dependent increase in calcium mobilization upon compound addition. Positive allosteric modulator activity was analyzed as a concentration-dependent increase in the EC20 acetylcholine response. Antagonist activity was analyzed as a concentration-dependent decrease in the EC80 acetylcholine response. Concentration-response curves were generated using a four-parameter logistical equation in XLfit curve fitting software (IDBS, Bridgewater, N.J.) for Excel (Microsoft, Redmond, Wash.) or Prism (GraphPad Software, Inc., San Diego, Calif.).
Activity (EC50 and Emax) was determined in the mAChR M1 cell-based functional assay as described above and the data are shown in Table 2. […]

Row | Emax [%] | pEC50 | SMILES
1 | 70 |  | Cc1nn(C)cc1-c1ccc(CN2Cc3sccc3C2=O)c(F)c1 [Compound 43, 5-(4-(1,3-dimethyl-1H-pyrazol-4-yl)-2-fluorobenzyl)-5,6-dihydro-4H-thieno[2,3-c]pyrrol-4-one]
2 | 51 | 5.56 | Cn1cc2cc(-c3ccc(CN4Cc5sccc5C4=O)c(F)c3)ccc2n1 [Compound 44, 5-(2-fluoro-4-(2-methyl-2H-indazol-5-yl)benzyl)-5,6-dihydro-4H-thieno[2,3-c]pyrrol-4-one]
3 | 50 | 5.35 | O=C1c2ccsc2CN1Cc1ccc(-c2ccc3nccn3c2)cc1F [Compound 45, 5-(2-fluoro-4-(imidazo[1,2-a]pyridin-6-yl)benzyl)-5,6-dihydro-4H-thieno[2,3-c]pyrrol-4-one]
4 | 50 |  | Cn1cc(-c2ccc(CN3Cc4sccc4C3=O)cc2)cn1 [Compound 46, 5-(4-(1-methyl-1H-pyrazol-4-yl)benzyl)-5,6-dihydro-4H-thieno[2,3-c]pyrrol-4-one]
5 | 30 |  | O=C1c2ccsc2CN1Cc1ccc(-c2cscn2)cc1 [Compound 47, 5-(4-(thiazol-4-yl)benzyl)-5,6-dihydro-4H-thieno[2,3-c]pyrrol-4-one]
6 | 33 |  | Cn1cc(-c2ccc(CN3Cc4sccc4C3=O)cc2)nn1 [Compound 48, 5-(4-(1-methyl-1H-1,2,3-triazol-4-yl)benzyl)-5,6-dihydro-4H-thieno[2,3-c]pyrrol-4-one]
7 | 60 | 5.19 | Cn1cc2c(-c3cc(F)c(CN4Cc5ccn(CC6CCCO6)c5C4=O)c(F)c3)cccc2n1 (centres unmarked) [Compound 49, 5-(2,6-difluoro-4-(2-methyl-2H-indazol-4-yl)benzyl)-1-((tetrahydrofuran-2-yl)methyl)-4,5-dihydropyrrolo[3,4-b]pyrrol-6(1H)-one]
8 | 38 | 5.46 | Cn1cc(-c2cc(F)c(CN3Cc4ccn(CC5CCCO5)c4C3=O)c(F)c2)cn1 (centres unmarked) [Compound 50, 5-(2,6-difluoro-4-(1-methyl-1H-pyrazol-4-yl)benzyl)-1-((tetrahydrofuran-2-yl)methyl)-4,5-dihydropyrrolo[3,4-b]pyrrol-6(1H)-one]
9 | 51 | 5.46 | Cc1nn(C)cc1-c1cc(F)c(CN2Cc3ccn(CC4CCCO4)c3C2=O)c(F)c1 (centres unmarked) [Compound 51, 5-(4-(1,3-dimethyl-1H-pyrazol-4-yl)-2,6-difluorobenzyl)-1-((tetrahydrofuran-2-yl)methyl)-4,5-dihydropyrrolo[3,4-b]pyrrol-6(1H)-one]
10 | 33 | 5.67 | O=C1c2c(ccn2CC2CCCO2)CN1Cc1c(F)cc(-c2ccc3nccn3c2)cc1F (centres unmarked) [Compound 52, 5-(2,6-difluoro-4-(imidazo[1,2-a]pyridin-6-yl)benzyl)-1-((tetrahydrofuran-2-yl)methyl)-4,5-dihydropyrrolo[3,4-b]pyrrol-6(1H)-one]
11 | 63 |  | CCn1ccc2c1C(=O)N(Cc1c(F)cc(-c3cccc4nn(C)cc34)cc1F)C2 [Compound 53, 5-(2,6-difluoro-4-(2-methyl-2H-indazol-4-yl)benzyl)-1-ethyl-4,5-dihydropyrrolo[3,4-b]pyrrol-6(1H)-one]
12 | 69 | 5.25 | Cn1cc2c(-c3cc(F)c(CN4Cc5ccn(CCCO)c5C4=O)c(F)c3)cccc2n1 [Compound 54, 5-(2,6-difluoro-4-(2-methyl-2H-indazol-4-yl)benzyl)-1-(3-hydroxypropyl)-4,5-dihydropyrrolo[3,4-b]pyrrol-6(1H)-one]
13 | 59 | 5.05 | Cn1cc2c(-c3cc(F)c(CN4Cc5ccn(CC6CCOCC6)c5C4=O)c(F)c3)cccc2n1 [Compound 55, 5-(2,6-difluoro-4-(2-methyl-2H-indazol-4-yl)benzyl)-1-((tetrahydro-2H-pyran-4-yl)methyl)-4,5-dihydropyrrolo[3,4-b]pyrrol-6(1H)-one]
14 | 80 | 5.44 | Cn1cc2c(-c3cc(F)c(CN4Cc5occc5C4=O)c(F)c3)cccc2n1 [Compound 56, 5-(2,6-difluoro-4-(2-methyl-2H-indazol-4-yl)benzyl)-5,6-dihydro-4H-furo[2,3-c]pyrrol-4-one]
15 | 42 | 6.00 | Cn1cc2cc(-c3cc(F)c(CN4Cc5occc5C4=O)c(F)c3)ccc2n1 [Compound 57, 5-(2,6-difluoro-4-(2-methyl-2H-indazol-5-yl)benzyl)-5,6-dihydro-4H-furo[2,3-c]pyrrol-4-one]
16 | 78 |  | Cn1cc(-c2cc(F)c(CN3Cc4occc4C3=O)c(F)c2)cn1 [Compound 58, 5-(2,6-difluoro-4-(1-methyl-1H-pyrazol-4-yl)benzyl)-5,6-dihydro-4H-furo[2,3-c]pyrrol-4-one]
17 | 90 |  | Cc1nn(C)cc1-c1cc(F)c(CN2Cc3occc3C2=O)c(F)c1 [Compound 59, 5-(4-(1,3-dimethyl-1H-pyrazol-4-yl)-2,6-difluorobenzyl)-5,6-dihydro-4H-furo[2,3-c]pyrrol-4-one]
18 | 50 |  | Cn1cc2cccc(-c3cc(F)c(CN4Cc5occc5C4=O)c(F)c3)c2n1 [Compound 60, 5-(2,6-difluoro-4-(2-methyl-2H-indazol-7-yl)benzyl)-5,6-dihydro-4H-furo[2,3-c]pyrrol-4-one]
19 | 51 |  | Cc1[nH]cc2c1C(=O)N(Cc1c(F)cc(-c3cccc4nn(C)cc34)cc1F)C2 [Compound 61, 2-(2,6-difluoro-4-(2-methyl-2H-indazol-4-yl)benzyl)-6-methyl-3,5-dihydropyrrolo[3,4-c]pyrrol-1(2H)-one]
